Assay: practical solubility of the transition metal complexes at ambient temperature
Settings: not given
Method: The practical solubility of the transition metal complexes was determined at ambient temperature in the inert atmosphere of the dry box.
1 mg of solid complex was contacted with 0.5 ml of benzene-D6 in an NMR-tube (5 mm external diameter) and gently swirled.
With `CCCCCCCCCCCCCCCCCCCCOc1c(-c2ccccc2)cc(N=C(C)c2cccc(C(C)=Nc3cc(-c4ccccc4)c(OCCCCCCCCCCCCCCCCCCCC)c(-c4ccccc4)c3)n2)cc1-c1ccccc1.[Cl-].[Cl-].[Cl-].[Cr+3]` [Example 9, 2,6-bis[1-(4-eicosanoxy-3,5-diphenylphenylimino)ethyl]pyridine chromium[III] trichloride complex] the “solubility in toluene or benzene-D6” value was “ca. 50 mg/ml”. For `CCCCCCCCCCCCCCCCCCCCOc1cc(C)c([N+]2=C(C)c3cccc4[n+]3[Fe]2([Cl])([Cl])[N+](c2cc(C(C)C)c(OCCCCCCCCCCCCCCCCCCCC)cc2C)=C4C)cc1C(C)C` [Example 12, 2,6-bis[1-(2-methyl-4-eicosanoxy-5-isopropylphenylimino)ethyl]pyridine iron (II) dichloride], the “solubility in C6D6 (in words)” value was “soluble”.

Same assay, conditions: 20 °C, organic solvent or mixture, thermodynamic from solid
For `CC1=[N+](c2cc(C(C)(C)C)cc(C(C)(C)C)c2)[Fe]2([Cl])([Cl])[N+](c3c(C)cc(C)cc3C)=C(C)c3cccc1[n+]32` [Example 2, 2-[1-(2,4,6-trimethylphenylimino)ethyl]-6-[1-(3,5-di-tert-butylphenylimino)ethyl]pyridine iron[II] chloride complex, reference compound], the solubility at 24 h was < 1 mg/mL. Compound `CCCCCCCCCCCCCCCCCCCCOc1c(-c2ccccc2)cc([N+]2=C(C)c3cccc4[n+]3[Fe]2([Cl])([Cl])[N+](c2c(C)cc(C)cc2C)=C4C)cc1-c1ccccc1` [Example 3, 2-[1-(2,4,6-trimethylphenylimino)ethyl]-6-[1-(4-eicosanoxy-3,5-diphenylphenylimino)ethyl]pyridine iron[II] dichloride complex] has a solubility at 24 h of ~50 mg/mL. `CCCCCCCCCCCCCCCCCCCCOc1c(-c2ccccc2)cc([N+]2=C(C)c3cccc4[n+]3[Co]2([Cl])([Cl])[N+](c2c(C)cc(C)cc2C)=C4C)cc1-c1ccccc1` [Example 4, 2-[1-(2,4,6-trimethylphenylimino)ethyl]-6-[1-(4-eicosanoxy-3,5-diphenylphenylimino)ethyl]pyridine cobalt[II] dichloride complex] showed a solubility at 24 h of 50 mg/mL. With `CCCCCCCCCCCCCCCCCCCCOc1c(-c2ccccc2)cc([N+]2=C(C)c3cccc4[n+]3[Fe]2([Cl])([Cl])[N+](c2cc(-c3ccccc3)c(OCCCCCCCCCCCCCCCCCCCC)c(-c3ccccc3)c2)=C4C)cc1-c1ccccc1` [Example 7, 2,6-bis[1-(4-eicosanoxy-3,5-diphenylphenylimino)ethyl]pyridine iron [II] dichloride complex] the solubility at 24 h was ~100 mg/mL. `CCCCCCCCCCCCCCCCCCCCOc1c(-c2ccccc2)cc([N+]2=C(C)c3cccc4[n+]3[Co]2([Cl])([Cl])[N+](c2cc(-c3ccccc3)c(OCCCCCCCCCCCCCCCCCCCC)c(-c3ccccc3)c2)=C4C)cc1-c1ccccc1` [Example 8, 2,6-bis[1-(4-eicosanoxy-3,5-diphenylphenylimino)ethyl]pyridine cobalt[II] dichloride complex] gave a solubility at 24 h of ~100 mg/mL. `CCCCCCCCCCCCCCCCCCCCOc1c(-c2ccccc2)cc([N+]2=C(C)c3cccc4[n+]3[Co]2([Cl])([Cl])[N+](c2ccccc2C(C)(C)C)=C4C)cc1-c1ccccc1` [Example 10, 2-[1-(2-tert-butylphenylimino)ethyl]-6-[1-(4-eicosanoxy-3,5-diphenylphenylimino)ethyl]pyridine cobalt[II] chloride complex] gave a solubility at 24 h of ~50 mg/mL. In the case of `CCCCCCCCCCCCCCCCCCCCOc1ccc([N+]2=C(C)c3cccc4[n+]3[Fe]2([Cl])([Cl])[N+](c2ccc(OCCCCCCCCCCCCCCCCCCCC)cc2C)=C4C)c(C)c1` [Example 11, 2,6-bis[1-(4-eicosanoxy-2-methylphenylimino)ethyl]pyridine iron[II] chloride complex, reference compound], the solubility at 24 h is reported as < 1 mg/mL. With `CCCCCCCCCCCCCCCCCCCCOc1cc(C)c([N+]2=C(C)c3cccc4[n+]3[Fe]2([Cl])([Cl])[N+](c2cc(C(C)C)c(OCCCCCCCCCCCCCCCCCCCC)cc2C)=C4C)cc1C(C)C` [Example 12, 2,6-bis[1-(2-methyl-4-eicosanoxy-5-isopropylphenylimino)ethyl]pyridine iron (II) dichloride] the solubility at 24 h was ~10 mg/mL. With `CCCOc1c(-c2ccccc2)cc([N+]2=C(C)c3cccc4[n+]3[Co]2([Cl])([Cl])[N+](c2c(C)cc(C)cc2C)=C4C)cc1-c1ccccc1` [Example 13, 2-[1-(2,4,6-trimethylphenylimino)ethyl]-6-[1-(4-propoxy-3,5-diphenylphenylimino)ethyl]pyridine cobalt[II] chloride complex, reference compound] the solubility at 24 h was < 1 mg/mL. With `CC1=[N+](c2cc(-c3ccccc3)c(O)c(-c3ccccc3)c2)[Fe]2([Cl])([Cl])[N+](c3c(C)cc(C)cc3C)=C(C)c3cccc1[n+]32` [Example 14, 2-[1-(2,4,6-trimethylphenylimino)ethyl]-6-[1-(4-hydroxy-3,5-diphenylphenylimino)ethyl]pyridine iron (II) dichloride, reference compound] the solubility at 24 h was < 1 mg/mL.

Same assay, conditions: at 20° C.
In the case of `CCCCCCCCCCCCCCCCCCCCOc1c(-c2ccccc2)cc(N=C(C)c2cccc(C(C)=Nc3c(C)cc(C)cc3C)n2)cc1-c1ccccc1.FC(F)(F)c1cc([B-](c2cc(C(F)(F)F)cc(C(F)(F)F)c2)(c2cc(C(F)(F)F)cc(C(F)(F)F)c2)c2cc(C(F)(F)F)cc(C(F)(F)F)c2)cc(C(F)(F)F)c1.[Cl][Co+]` [Example 5, 2-[1-(2,4,6-trimethylphenylimino)ethyl]-6-[1-(4-eicosanoxy-3,5-diphenylphenylimino)ethyl]pyridine cobalt[II] chloride tetrakis[3,5-bis[trifluoromethyl)phenyl]borate], the “solubility in toluene or benzene-D6” value is reported as “ca. 10 mg/ml”. In the case of `CCCCCCCCCCCCCCCCCCCCOc1c(-c2ccccc2)cc(N=C(C)c2cccc(C(C)=Nc3c(C)cc(C)cc3C)n2)cc1-c1ccccc1.[Cl-].[Cl-].[Cl-].[Cr+3]` [Example 6, 2-[1-(2,4,6-trimethylphenylimino)ethyl]-6-[1-(4-eicosanoxy-3,5-diphenylphenylimino)ethyl]pyridine chromium[III] trichloride complex], the “solubility in toluene or benzene-D6” value is reported as “ca. 1 mg/ml”.
